For 20 compounds, IC50 results are on record in patent US8372863B2, “Tetrahydro-1H-pyrrolo fused pyridones” (Merck Sharp & Dohme Corp., priority 2008, dated 2013).

Structures can show the parent of a compound that is named as a salt. Some results are limits rather than exact numbers.

For this test, the target named is PHD2 (Homo sapiens, UniProt Q9GZT9). Briefly: PHD2 / HIF-1α peptide hydroxylation assay with time resolved fluorescence readout (PHD2 binding activity). The test is classed as biochemical. The following applies: FLAG-tagged full length PHD2; 0.2 μM 2-oxoglutarate, 0.5 μM HIF-1α peptide; read-out: PHD2 Activity (PHD2 binding activity expressed as IC50). Here is the method: After a 30 min preincubation at room temperature, the enzymatic reactions were initiated by the addition of 4 μL of substrates (final concentrations of 0.2 μM 2-oxoglutarate and 0.5 μM HIF-1α peptide biotinyl-DLDLEMLAPYIPMDDDFQL). After 2 hr at room temperature, the reactions were terminated and signals were developed by the addition of a 25 μL quench/detection mix to a final concentration of 1 mM ortho-phenanthroline, 0.1 mM EDTA, 0.5 nM anti-(His)6 LANCE reagent (Perkin-Elmer Life Sciences), 100 nM AF647-labeled streptavidin (Invitrogen), and 2 μg/ml (His)6-VHL complex (S. Tan(2001) Protein Expr. Purif 21, 224-234). The ratio of time resolved fluorescence signals at 665 and 620 nm was determined, and percent inhibition was calculated relative to an uninhibited control sample run in parallel.
Chain of PHD2 (Q9GZT9 whole entry): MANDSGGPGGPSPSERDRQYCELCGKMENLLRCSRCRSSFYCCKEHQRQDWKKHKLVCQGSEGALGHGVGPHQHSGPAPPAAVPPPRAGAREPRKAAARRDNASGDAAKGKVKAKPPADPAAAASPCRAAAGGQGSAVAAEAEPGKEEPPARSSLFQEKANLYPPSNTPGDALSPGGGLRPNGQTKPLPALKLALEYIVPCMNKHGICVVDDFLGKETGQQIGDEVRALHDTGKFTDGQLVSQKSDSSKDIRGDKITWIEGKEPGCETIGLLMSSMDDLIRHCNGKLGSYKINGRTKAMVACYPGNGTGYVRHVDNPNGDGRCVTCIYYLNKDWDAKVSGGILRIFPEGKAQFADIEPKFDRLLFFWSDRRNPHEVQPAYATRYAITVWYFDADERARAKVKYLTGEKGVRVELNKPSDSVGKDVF
For `O=C(O)CNC(=O)c1c(O)c2c(n(Cc3cccc(-c4cccnc4)c3)c1=O)CN(C(=O)c1cscn1)C2` [Example 52, N-{[4-hydroxy-2-oxo-1-(3-pyridin-3-ylbenzyl)-6-(1,3-thiazol-3-ium-4-ylcarbonyl)-2,5,6,7-tetrahydro-1H-pyrrolo[3,4-b]pyridin-3-yl]carbonyl}glycine trifluoroacetate], the IC50 is under 0.01 µM.
Then `O=C(O)CNC(=O)c1c(O)c2c(n(Cc3ccccc3-c3ccccc3)c1=O)CN(C(=O)c1cscn1)C2` [Example 49, N-{[1-(biphenyl-2-ylmethyl)-4-hydroxy-2-oxo-6-(1,3-thiazol-4-ylcarbonyl)-2,5,6,7-tetrahydro-1H-pyrrolo[3,4-b]pyridin-3-yl]carbonyl}glycine], with under 0.01 µM.
Then `CCOC(=O)N1Cc2c(O)c(C(=O)NCC(=O)O)c(=O)n(Cc3ccc(C(F)(F)F)cc3)c2C1` [Example 16, N-({6-(ethoxycarbonyl)-4-hydroxy-2-oxo-1-[4-(trifluoromethyl)benzyl]-2,5,6,7-tetrahydro-1H-pyrrolo[3,4-b]pyridin-3-yl}carbonyl)glycine], with under 0.01 µM.
Consider `CN1CCC[C@H]1C(=O)N1Cc2c(O)c(C(=O)NCC(=O)O)c(=O)n(Cc3ccc(C(F)(F)F)cc3)c2C1` [Example 27, N-({4-hydroxy-6-(1-methyl-L-prolyl)-2-oxo-1-[4-(trifluoromethyl)benzyl]-2,5,6,7-tetrahydro-1H-pyrrolo[3,4-b]pyridin-3-yl}carbonyl)glycine], for which the IC50 was under 0.01 µM.
As for `O=C(O)CNC(=O)c1c(O)c2c(n(Cc3cccc(-c4cncnc4)c3)c1=O)CN(C(=O)c1cscn1)C2` [Example 46, N-{[4-hydroxy-2-oxo-1-(3-pyrimidin-5-ylbenzyl)-6-(1,3-thiazol-4-ylcarbonyl)-2,5,6,7-tetrahydro-1H-pyrrolo[3,4-b]pyridin-3-yl]carbonyl}glycine], the IC50 was under 0.01 µM.
Then `O=C(O)CNC(=O)c1c(O)c2c(n(Cc3ccc(-c4ccccc4)cc3)c1=O)CN(C(=O)c1cscn1)C2` [Example 38, N-{[1-(biphenyl-4-ylmethyl)-4-hydroxy-2-oxo-6-(1,3-thiazol-4-ylcarbonyl)-2,5,6,7-tetrahydro-1H-pyrrolo[3,4-b]pyridin-3-yl]carbonyl}glycine], with under 0.01 µM.
Then `C=CCCC(=O)N1Cc2c(c(O)c(C(=O)NCC(=O)O)c(=O)n2Cc2ccc(Br)cc2)C1C` (centres unmarked) [Example 6, N-{[1-(4-bromobenzyl)-4-hydroxy-5-methyl-2-oxo-6-pent-4-enoyl-2,5,6,7-tetrahydro-1H-pyrrolo[3,4-b]pyridin-3-yl]carbonyl}glycine], with under 0.01 µM.
Then `O=C(O)CNC(=O)c1c(O)c2c(n(Cc3ccc(C(F)(F)F)cc3)c1=O)CN(C(=O)C1CCCC1)C2` [Example 20, N-({6-(cyclopentylcarbonyl)-4-hydroxy-2-oxo-1-[4-(trifluoromethyl)benzyl]-2,5,6,7-tetrahydro-1H-pyrrolo[3,4-b]pyridin-3-yl}carbonyl)glycine], with under 0.01 µM; and `CC1c2c(c(O)c(C(=O)NCC(=O)O)c(=O)n2Cc2ccc(-c3ccccc3)cc2)CN1C(=O)c1cscn1` (single isomer, unassigned) [55 Enantiomer 2], with 0.01 to 0.1 µM; and `C=CCCC(=O)N1Cc2c(O)c(C(=O)NCC(=O)O)c(=O)n(Cc3ccc(-c4ccccc4)cc3)c2C1C` (centres unmarked) [Example 48, N-{[1-(biphenyl-4-ylmethyl)-4-hydroxy-7-methyl-2-oxo-6-pent-4-enoyl-2,5,6,7-tetrahydro-1H-pyrrolo[3,4-b]pyridin-3-yl]carbonyl}glycine], with under 0.01 µM.
Take `CC1c2c(c(O)c(C(=O)NCC(=O)O)c(=O)n2Cc2ccc(-c3ccccc3)cc2)CN1C(=O)c1cscn1` (single isomer, unassigned) [55 Enantiomer 1]: the IC50 is under 0.01 µM.
Then `Cc1cc(C(=O)N2Cc3c(O)c(C(=O)NCC(=O)O)c(=O)n(Cc4ccc(C(F)(F)F)cc4)c3C2)nn1C` [Example 31, N-({6-[(1,5-dimethyl-1H-pyrazol-2-ium-3-yl)carbonyl]-4-hydroxy-2-oxo-1-[4-(trifluoromethyl)benzyl]-2,5,6,7-tetrahydro-1H-pyrrolo[3,4-b]pyridin-3-yl}carbonyl)glycine chloride], with under 0.01 µM.
Regarding `C=CCCC(=O)N1Cc2c(O)c(C(=O)NCC(=O)O)c(=O)n(Cc3ccc(-c4ccccc4)cc3)c2C1` [Example 2, N-{[1-(biphenyl-4-ylmethyl)-4-hydroxy-2-oxo-6-pent-4-enoyl-2,5,6,7-tetrahydro-1H-pyrrolo[3,4-b]pyridin-3-yl]carbonyl}glycine], the IC50 was under 0.01 µM.
Then `O=C(O)CNC(=O)c1c(O)c2c(n(Cc3ccc(C(F)(F)F)cc3)c1=O)CN(C(=O)c1cncs1)C2` [Example 30, N-({4-hydroxy-2-oxo-6-(1,3-thiazol-5-ylcarbonyl)-1-[4-(trifluoromethyl)benzyl]-2,5,6,7-tetrahydro-1H-pyrrolo[3,4-b]pyridin-3-yl}carbonyl)glycine], with under 0.01 µM; and `O=C(O)CNC(=O)c1c(O)c2c(n(Cc3cccc(-c4ccncc4)c3)c1=O)CN(C(=O)c1cscn1)C2` [Example 51, N-{[4-hydroxy-2-oxo-1-(3-pyridin-4-ylbenzyl)-6-(1,3-thiazol-3-ium-4-ylcarbonyl)-2,5,6,7-tetrahydro-1H-pyrrolo[3,4-b]pyridin-3-yl]carbonyl}glycine trifluoroacetate], with under 0.01 µM; and `O=C(O)CNC(=O)c1c(O)c2c(n(Cc3ccc(C(F)(F)F)cc3)c1=O)CN(C(=O)c1ccno1)C2` [Example 33, N-({4-hydroxy-6-(isoxazol-5-ylcarbonyl)-2-oxo-1-[4-(trifluoromethyl)benzyl]-2,5,6,7-tetrahydro-1H-pyrrolo[3,4-b]pyridin-3-yl}carbonyl)glycine], with 0.01 to 0.1 µM.
As for `CCN1Cc2c(O)c(C(=O)NCC(=O)O)c(=O)n(Cc3ccc(C(F)(F)F)cc3)c2C1` [Example 41, N-({6-ethyl-4-hydroxy-2-oxo-1-[4-(trifluoromethyl)benzyl]-2,5,6,7-tetrahydro-1H-pyrrolo[3,4-b]pyridin-6-ium-3-yl}carbonyl)glycine trifluoroacetate], the figure is 0.01 to 0.1 µM; as for `O=C(O)CNC(=O)c1c(O)c2c(n(Cc3ccc(C(F)(F)F)cc3)c1=O)CN(C(=O)N1CCOCC1)C2` [Example 11, N-({4-hydroxy-6-(morpholin-4-ylcarbonyl)-2-oxo-1-[4-(trifluoromethyl)benzyl]-2,5,6,7-tetrahydro-1H-pyrrolo[3,4-b]pyridin-3-yl}carbonyl)glycine], under 0.01 µM.
Then `O=C(O)CNC(=O)c1c(O)c2c(n(Cc3cccc(-c4ccc(Cl)cc4)c3)c1=O)CN(C(=O)c1cscn1)C2` [Example 45, N-{[1-[(4′-chlorobiphenyl-3-yl)methyl]-4-hydroxy-2-oxo-6-(1,3-thiazol-4-ylcarbonyl)-2,5,6,7-tetrahydro-1H-pyrrolo[3,4-b]pyridin-3-yl]carbonyl}glycine], with under 0.01 µM; and `CS(=O)(=O)N1Cc2c(O)c(C(=O)NCC(=O)O)c(=O)n(Cc3ccc(C(F)(F)F)cc3)c2C1` [Example 10, N-({4-hydroxy-6-(methylsulfonyl)-2-oxo-1-[4-(trifluoromethyl)benzyl]-2,5,6,7-tetrahydro-1H-pyrrolo[3,4-b]pyridin-3-yl}carbonyl)glycine], with under 0.01 µM.

What is called IC50 is the concentration at which inhibition is half-maximal.
